Results: patent US20220168430A1, “THERAPEUTIC METHODS FOR TREATING HEPATITIS B” (priority 2019, published 2022)
Like-named read-outs stand apart in the source and are kept apart here.

Tested on: HBV rcDNA
Experiment: Dual agent combination in HepDE19 cells, rcDNA by Quantigene 2.0 bDNA assay (Examples 5-8)
Type: cell-based, HBV; HepDE19 (HepG2 human hepatocarcinoma derived)
Settings: Hepatitis B virus; for inhibition at 0.005 µM: Compound 1 0.005 μM alone; for inhibition at 0.01 µM: Compound 1 0.010 μM alone; for inhibition at 0.02 µM: Compound 1 0.020 μM alone; for inhibition at 0.039 µM: Compound 1 0.039 μM alone; for inhibition at 0.156 µM: Compound 1 0.156 μM alone
Experimental: In vitro dual agent combination studies were conducted using the method of Prichard and Shipman 1990 (Prichard M N, Shipman C, Jr. 1990. Antiviral Res 14:181-205). The HepDE19 cell culture system is a HepG2 (human hepatocarcinoma) derived cell line that supports HBV DNA replication and cccDNA formation under control the control of a CMV Tet-off promoter system (Guo et al. 2007. J Virol 81:12472-84). HepDE19 (50,000 cells/well) were plated in 96 well collagen-coated tissue-culture treated microtiter plates in DMEM/F12 medium supplemented with 10% fetal bovine serum+1% penicillin-streptomycin with tetracycline (1 μg/mL) and incubated in a humidified incubator at 37° C. and 5% CO2 overnight. Next day, the cells were switched to fresh medium without tetracycline and incubated for 4 hrs at 37° C. and 5% CO2. The cells were switched to fresh medium and treated with inhibitor A and inhibitor B, at concentration range spanning their respective EC50 values. […] The two inhibitors were tested both singly as well as in combinations in a checkerboard fashion such that each concentration of inhibitor A was combined with each concentration of inhibitor B to determine their combination effects on inhibition of rcDNA production. There were four replicates of each concentration combination in each experiment. The plates were incubated for 7 days in a humidified incubator at 37° C. and 5% CO2. The level of rcDNA present in the wells was measured using a Quantigene 2.0 bDNA assay kit (Affymetrix, Santa Clara, Calif.) with HBV specific custom probe set (genotype D ayw) and according to the manufacturer's instructions and read using a luminescence plate reader and the relative luminescence units (RLU) data generated from each well was calculated as % inhibition of the untreated control wells and analyzed using the MacSynergy II program to determine whether the combinations were synergistic, additive or antagonistic using the interpretive guidelines established by Prichard and Shipman (Prichard M N, Shipman C, Jr. 1990. […] Each experiment was repeated at least three times and the averages and standard deviations of individual determinations was calculated to derive the conclusion. Concurrently, in each experiment, the effect of inhibitor combinations on cell viability was assessed using replicate plates in triplicates that were used to determine the ATP content as a measure of cell viability using the Cell-Titer Glo reagent (Promega, Madison, Wis.) as per the manufacturer's instructions.

[1] = HepDE19, Expt 2, read-out: AVERAGE % INHIBITION
[2] = HepDE19, Expt 3 (with ETV), read-out: ADDITIVE INHIBITION
[3] = HepDE19, Expt 3 (with ETV), read-out: AVERAGE % INHIBITION
[4] = HepDE19, Expt 3 (with TDF), read-out: ADDITIVE INHIBITION
[5] = HepDE19, Expt 3 (with TDF), read-out: AVERAGE % INHIBITION

Cn1cnc(COC(=O)N[C@H]2CCc3c(C(=O)Nc4ccc(F)c(Cl)c4)ccc(F)c32)n1 [Compound 1]
inhibition at 0.005 µM [1]: 7.51%
inhibition at 0.01 µM [1]: 26.3%
inhibition at 0.02 µM [1]: 40.8%
inhibition at 0.039 µM [1]: 39.8%
inhibition at 0.156 µM [1]: 87.4%
inhibition at 1.25 µM (HepDE19, Expt 2, Compound 1 1.250 μM alone, read-out: AVERAGE % INHIBITION): 98.4%
inhibition at 0.005 µM [2]: -5.5%
inhibition at 0.005 µM [3]: -5.5%
inhibition at 0.01 µM [2]: 6.89%
inhibition at 0.01 µM [3]: 6.89%
inhibition at 0.02 µM [2]: 14.2%
inhibition at 0.02 µM [3]: 14.2%
inhibition at 0.039 µM [2]: 43.7%
inhibition at 0.039 µM [3]: 43.7%
inhibition at 0.156 µM [2]: 80.6%
inhibition at 0.156 µM [3]: 80.6%
inhibition at 1.25 µM (HepDE19, Expt 3 (with ETV), Compound 1 1.25 μM alone, read-out: ADDITIVE INHIBITION): 98.1%
inhibition at 1.25 µM (HepDE19, Expt 3 (with ETV), Compound 1 1.25 μM alone, read-out: AVERAGE % INHIBITION): 98.1%
inhibition at 0.005 µM [4]: 18.8%
inhibition at 0.005 µM [5]: 18.8%
inhibition at 0.01 µM [4]: 27.3%
inhibition at 0.01 µM [5]: 27.3%
inhibition at 0.02 µM [4]: 44.5%
inhibition at 0.02 µM [5]: 44.5%
inhibition at 0.039 µM [4]: 66.8%
inhibition at 0.039 µM [5]: 66.8%
inhibition at 0.156 µM [4]: 83.6%
inhibition at 0.156 µM [5]: 83.6%
inhibition at 1.25 µM (HepDE19, Expt 3 (with TDF), Compound 1 1.250 μM alone, read-out: ADDITIVE INHIBITION): 98.8%
inhibition at 1.25 µM (HepDE19, Expt 3 (with TDF), Compound 1 1.250 μM alone, read-out: AVERAGE % INHIBITION): 98.8%
inhibition at 0.007 µM (HepDE19, Expt 3, Cmpd 1 0.007 μM alone, read-out: AVERAGE % INHIBITION): 6.78%
inhibition at 0.067 µM (HepDE19, Expt 3, Cmpd 1 0.067 μM alone): 64.7%
inhibition at 0.2 µM (HepDE19, Expt 3, Cmpd 1 0.200 μM alone): 92.7%
inhibition at 0.6 µM (HepDE19, Expt 3, Cmpd 1 0.600 μM alone): 97.4%
inhibition at 0.007 µM (HepDE19, Expt 3, Compound 1 0.007 μM alone, read-out: AVERAGE % INHIBITION): -51.7%
inhibition at 0.067 µM (HepDE19, Expt 3, Compound 1 0.067 μM alone): 51.8%
inhibition at 0.2 µM (HepDE19, Expt 3, Compound 1 0.200 μM alone): 85.5%
inhibition at 0.6 µM (HepDE19, Expt 3, Compound 1 0.600 μM alone): 94.6%
inhibition at 0.007 µM (HepDE19, Expt 4, Compound 1 0.007 μM alone, read-out: AVERAGE % INHIBITION): 11.7%
inhibition at 0.067 µM (HepDE19, Expt 4, Compound 1 0.067 μM alone): 52.8%
inhibition at 0.2 µM (HepDE19, Expt 4, Compound 1 0.200 μM alone): 90%
inhibition at 0.6 µM (HepDE19, Expt 4, Compound 1 0.600 μM alone): 96.4%
